From US20080081796A1, “TREATMENT OF MUCOSITIS” (priority 2002, published 2008)

Test system: oral mucositis induced by acute radiation
Assay: oral mucositis induced by acute radiation in an animal model (Animal Study and Animal Study II)
Type: in vivo, Golden Syrian hamsters
Conditions: for severity of oral mucositis (average oral mucositis scores, FIG. 1): topical TID 0.25 ml to left cheek pouch, 40 Gy radiation on day 0, versus water control
From the text: The objective of this study was to evaluate the effect of the nucleoside derivative, 5′-adenosine-diphosphate ribose, when administered topically, on the frequency, severity and duration of oral mucositis induced by acute radiation in an animal model.
The animals in the study ([…] Golden Syrian hamsters, Charles River Lab., ages 5-6 weeks, approximately 90 g average body weight) were randomly and prospectively divided into three groups of eight animals each. The particular test material to be applied to the animal mucosa during the study essentially defined each group. The test materials were water (Group 1 control), ADP-ribose 100 μg/ml in water (Group 2) and ADP-ribose 500 μg/ml in water (Group 3).
Mucositis was induced in the animals with a standardized acute radiation protocol. A single dose of radiation (40 Gy/dose) was administered to each animal on day 0. Irradiation targeted the left buccal pouch mucosa at a rate of 121.5 cGy/minute. The left buccal pouch was everted, fixed and isolated using a lead shield. Prior to and following radiation on day 0, each animal was dosed with their respective test materials in the manner described below. Also, immediately prior to radiation, the buccal mucosa was everted and any excess test material solution was wiped away using a clean tissue or cotton swab.
The respective test materials were then applied topically TID to the irradiated mucosa of each animal on day 1 to day 20 of the study. To accomplish this, a tuberculin syringe without a needle, containing 0.25 ml of the test material, was inserted into the base of the left cheek pouch and the test material deposited accordingly. This was done TID (first between 8-9:00 am; second between […] and 1:00 pm; third between 4-6:00 pm). Any developing mucositis was evaluated and scored on alternate days from day 6-28. Each animal was also weighed and its survival recorded on day 1 to day 28.
During the study, each animal was tested for mucositis scores, weight change and survival. For the evaluation of mucositis, the animals were anesthetized with inhalation anesthetics, and the left pouch everted. The developing mucositis was scored visually by comparison to a validated photographic scale, ranging from 0 for normal, to 5 for severe ulceration (clinical scoring). In descriptive terms, this scale is defined in the following table:
A mucositis score of 1-2 represents a mild stage of the disease. A score of 3-5 indicates moderate to severe mucositis. Following visual scoring, a photograph was taken of each animal's mucosa using a standardized technique. At the conclusion of the experiment, all film was developed and the photographs randomly numbered. At least two independent trained observers graded the photographs in blinded fashion using the above-described scale (blinded scoring). Results of the mucositis scores are graphically illustrated in FIG. 1.
The animal study described in Example 2 was then repeated with an identical protocol but with modified ADP-ribose doses. The groups in this study were treated with water (control), ADP-ribose at 100 μg/ml in water (Compound F), ADP-ribose at 45 μg/ml in water (Compound G), and ADP-ribose at 15 μg/ml in water (Compound H). […] Animals in the control group had mucositis scores ≧3 for approximately 10 days, whereas the ADP-ribose group had scores of approximately 3 for only 4 days.

Question: With “5′-adenosine-diphosphate ribose [ADP-ribose]” as the substance, how does the “severity of oral mucositis (average oral mucositis scores, FIG. 1)” value (Example 3, ADP-ribose at 100 μg/ml in water (Compound D group)) read?
Answer: Its value is “decreased the severity of oral mucositis”.

Question: What about the “severity of oral mucositis (average oral mucositis scores, FIG. 1)” value (Example 3, ADP-ribose at 500 μg/ml (Compound E group)) of the same substance?
Answer: Its value is “decreased the severity of oral mucositis”.

Question: And the “effect on oral mucositis at 100 μg/ml compared with 500 μg/ml” value (Example 3, FIG. 1, comparison of the two ADP-ribose concentrations)?
Answer: The value was “superior to that of ADP-ribose at 500 μg/ml”.

Question: And the “healing of oral mucositis” value (Example 4, Animal Study II, FIG. 2, ADP-ribose at a 45 μg/ml dose (Compound G))?
Answer: Its value is “maximum healing of oral mucositis that was statistically significant”.

Question: And the “time with mucositis scores of approximately 3” value (Example 4, Animal Study II, FIG. 2, ADP-ribose group, control group had scores ≧3 for approximately 10 days)?
Answer: The value was 4 days.

Question: And the “healing of ulcers associated with mucositis (mucositis score ≧3) relative to the control” value (Example 4, Animal Study II, FIG. 2, ADP-ribose treatment groups (100, 45, 15 μg/ml in water))?
Answer: The value was “healed faster”.
